Assays:
[1] = tested on: cynomolgus monkeys; assay: Evaluation of wake-promoting effects in cynomolgus monkeys (EEG, EMG, locomotor activity); type: in vivo, cynomolgus monkey; conditions: Macaca fascicularis, po; 1 mg/kg, p.o., at zeitgeber time 12; 4 hours after administration; male cynomolgus monkeys; read-out: Wakefulness time (% of vehicle treatment) (Mean, n = 2-4)
Experimental: The wake-promoting effects were evaluated by measuring the electroencephalogram (EEG), electromyogram (EMG) and locomotor activity in cynomolgus monkeys. Under isoflurane anesthesia (0.5-5%, Pfizer Japan Inc., Tokyo, Japan), male cynomolgus monkeys (2-3 years old, Hamri Co., Ltd., Ibaraki, Japan) were surgically implanted with radio-telemetry transmitters (L03-F3, Data Sciences International Inc., MN, USA). The two EEG electrodes were stereotaxically positioned at the parietal area and secured to the cranium with stainless-steel screws in contact with the dura. Bilateral EMG electrodes were implanted into the back cervical muscles. After at least a 1-month recovery period in home cages, the monkeys were habituated to the recording chamber (an acrylic cage 60W×55D×75H (cm)) located in a soundproof and electrically shielded room by the time animals sleep sufficiently in the experimental room. Cortical EEG, EMG and locomotor activity were recorded using the telemetry system (PhysioTel Digital telemetry platform, Data Sciences International Inc.). The signals were semi-automatically scored in 20-second epochs by a sleep scoring system (SleepSign, Kissei Comtec Co., Ltd., Nagano, Japan).
Test compound (1 or 3 mg/kg) suspended in 0.5% methylcellulose aqueous solution or vehicle (i.e., 0.5% methylcellulose aqueous solution) was administered orally (p.o.) to monkeys at zeitgeber time 12 in a volume of 5 mL/kg body weight with a pretest-posttest design (n=2-4), and then EEG, EMG and locomotor activity were recorded for 4 hours after administration. The time spent in wakefulness for 4 hours after administration (% of vehicle treatment) was calculated by using SleepSign.

[2] = biological target: T1, human OX2 receptor (Homo sapiens, UniProt O43614); assay: Measurement of orexin type 2 receptor agonist activity (calcium fluorescence, Fluo-4, FDSS); type: cell-based; conditions: 3 uM test compound; CHO cells expressing human OX2 receptor; DMSO = 0%, 10 nM orexin A (human) = 100%
T1 construct: expressed in transfected cells
T1 sequence (O43614 1-444): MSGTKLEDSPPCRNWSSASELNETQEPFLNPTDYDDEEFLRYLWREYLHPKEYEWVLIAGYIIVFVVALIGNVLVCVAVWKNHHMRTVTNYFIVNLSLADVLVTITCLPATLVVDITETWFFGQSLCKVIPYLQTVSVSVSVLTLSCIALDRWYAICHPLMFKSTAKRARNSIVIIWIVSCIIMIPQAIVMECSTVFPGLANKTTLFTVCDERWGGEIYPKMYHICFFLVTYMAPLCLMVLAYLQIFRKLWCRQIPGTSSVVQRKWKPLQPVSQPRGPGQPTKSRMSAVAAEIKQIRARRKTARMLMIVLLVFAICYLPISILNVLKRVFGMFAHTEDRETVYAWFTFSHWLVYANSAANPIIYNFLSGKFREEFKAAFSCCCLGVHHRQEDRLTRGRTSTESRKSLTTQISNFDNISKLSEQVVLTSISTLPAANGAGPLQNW
Outline: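 CHO-K1 cells stably expressing human OX2 receptor (residues 1-444) were loaded with Fluo-4 AM plus probenecid. Calcium fluorescence after compound addition was recorded for 1 min 40 s. Activity (%) was scaled between DMSO (0%) and 10 nM orexin A final (100%).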

Row | Structure (SMILES) | OX2R agonist activity (3 uM, %) [2] | response vs control in vivo at 1 mg/kg [1]
1 | CS(=O)(=O)N[C@@H]1Cn2c(cn(-c3noc4ccc(F)c(-c5c(F)cc(F)cc5F)c34)c2=O)C1(F)F [Example 77, N-{(6R)-7,7-Difluoro-2-[5-fluoro-4-(2,4,6-trifluorophenyl)-1,2-benzoxazol-3-yl]-3-oxo-2,5,6,7-tetrahydro-3H-pyrrolo[1,2-c]imidazol-6-yl}methanesulfonamide] | 100% | 645%
2 | CS(=O)(=O)N[C@@H]1Cn2c(cn(-c3noc4cc(F)c(F)c(-c5c(F)cccc5F)c34)c2=O)C1(F)F [Example 142, N-{(6R)-2-[4-(2,6-difluorophenyl)-5,6-difluoro-1,2-benzoxazol-3-yl]-7,7-difluoro-3-oxo-2,5,6,7-tetrahydro-3H-pyrrolo[1,2-c]imidazol-6-yl}methanesulfonamide] | 99% | 690%
3 | CS(=O)(=O)N[C@@H]1CN2C(=O)N(c3noc4cc(F)cc(-c5c(F)cc(F)cc5F)c34)C[C@@H]2C1(F)F [Example 149, N-{(6R,7aR)-7,7-Difluoro-2-[6-fluoro-4-(2,4,6-trifluorophenyl)-1,2-benzoxazol-3-yl]-3-oxohexahydro-1H-pyrrolo[1,2-c]imidazol-6-yl}methanesulfonamide] | 95% | 731%
4 | CS(=O)(=O)N[C@@H]1CN2C(=O)N(c3noc4cccc(-c5c(F)cc(F)cc5F)c34)CC[C@@H]2C1(F)F [Example 213, N-{(4aR,6R)-5,5-Difluoro-1-oxo-2-[4-(2,4,6-trifluorophenyl)-1,2-benzoxazol-3-yl]octahydropyrrolo[1,2-c]pyrimidin-6-yl}methanesulfonamide] | 104% | 447%
5 | CS(=O)(=O)N[C@@H]1CN2C(=O)N(c3noc4cc(F)c(F)c(-c5c(F)cc(F)cc5F)c34)CC[C@@H]2C1(F)F [Example 243, N-{(4aR,6R)-2-[5,6-difluoro-4-(2,4,6-trifluorophenyl)-1,2-benzoxazol-3-yl]-5,5-difluoro-1-oxooctahydropyrrolo[1,2-c]pyrimidin-6-yl}methanesulfonamide] | 109% | 618%

The next lines start with results.

Row | OX2R agonist activity (3 uM, %) [2] | Structure (SMILES) | response vs control in vivo at 1 mg/kg [1]
6 | 107% | CS(=O)(=O)N[C@@H]1CN2C(=O)N(c3noc4ccc(F)c(-c5c(F)cccc5F)c34)CC[C@@H]2C1(F)F [Example 265, N-{(4aR,6R)-2-[4-(2,6-difluorophenyl)-5-fluoro-1,2-benzoxazol-3-yl]-5,5-difluoro-1-oxooctahydropyrrolo[1,2-c]pyrimidin-6-yl}methanesulfonamide] | 472%
7 | 105% | CCS(=O)(=O)N[C@@H]1Cn2c(cn(-c3noc4cc(F)cc(-c5c(F)cccc5F)c34)c2=O)C1(F)F [Example 282, N-{(6R)-2-[4-(2,6-difluorophenyl)-6-fluoro-1,2-benzoxazol-3-yl]-7,7-difluoro-3-oxo-2,5,6,7-tetrahydro-3H-pyrrolo[1,2-c]imidazol-6-yl}ethanesulfonamide] | 418%

Reference: patent US11987586B1 (TAKEDA PHARMACEUTICAL COMPANY LIMITED, priority 2022, dated 2024)
